What all share (assay type): functional
The subject of assay [1] is Escherichia coli. Nature of the assay: Tested in vitro for antibacterial activity against Escherichia coli (KC-14).
The subject of assay [2] is Escherichia coli. Nature of the assay: Tested for inhibitory activity against DNA gyrase supercoiling in Escherichia coli (KL-16).
Assay [3] concerns Escherichia coli. Nature of the assay: Tested in vitro for antibacterial activity agains Escherichia coli (NIHJ JC-2).
A further assay relates to Enterococcus faecalis. Nature of the assay: Tested in vitro for antibacterial activity agains Enterococcus faecalis (IID 682).
The test system of assay [4] is Pseudomonas aeruginosa. Nature of the assay: Tested in vitro for antibacterial activity against Pseudomonas aeruginosa (E-2).
Assay [5] concerns Pseudomonas aeruginosa. Nature of the assay: Tested in vitro for antibacterial activity against Pseudomonas aeruginosa (IFO 3445).
Assay [6] relates to Staphylococcus epidermidis. Description: Tested in vitro for antibacterial activity against Staphylococcus epidermidis (IAM 1296).
Assay [7] has as its system Staphylococcus aureus. Description: Tested in vitro for antibacterial activity against Staphylococcus aureus (FDA 209P JC-1).
Assay [8] relates to Staphylococcus aureus. Nature of the assay: Tested in vitro for antibacterial activity against Staphylococcus aureus (IID 803).
A further assay relates to Klebsiella pneumoniae. Nature of the assay: Tested in vitro for antibacterial activity against Klebsiella pneumoniae (B54).

Molecules are shown by their SMILES. ≈ marks a conversion by molar mass, not a printed value.

Consider `CN1CCN(c2c(F)cc3c(=O)c(C(=O)O)c4n5c3c2N(C)CC5CS4)CC1.Cl` (stereo unspecified), for which the MIC worked out at 0.78 µg/mL in the assay with Escherichia coli [1]; 0.78 µg/mL against Escherichia coli [3]; 1.56 µg/mL against Enterococcus faecalis; 6.25 µg/mL in the assay with Pseudomonas aeruginosa [4]; 6.25 µg/mL against Pseudomonas aeruginosa [5]; 0.78 µg/mL in [6]. The values for the MIC against Staphylococcus aureus [7], against Staphylococcus aureus [8] and with Klebsiella pneumoniae were 0.78 µg/mL, 0.39 µg/mL and 0.39 µg/mL, respectively. Further, in the assay with Escherichia coli [2], the midpoint of inhibition, the IC50, lay at 0.53 µg/mL.
Turning to `CN1CCN(c2c(F)cc3c(=O)c(C(=O)O)c4n5c3c2OCC5CS4)CC1.Cl` (stereo unspecified), the MIC in the assay with Escherichia coli [1] was 0.025 µg/mL; with Escherichia coli [3] it was 0.05 µg/mL; against Enterococcus faecalis it was 0.78 µg/mL; with Pseudomonas aeruginosa [4], 1.56 µg/mL; in the assay on Pseudomonas aeruginosa [5] it was 1.56 µg/mL; in [6] it was 0.2 µg/mL. Further, the MIC in the assay on Staphylococcus aureus [7] was found to be 0.1 µg/mL; with Staphylococcus aureus [8], 0.1 µg/mL; with Klebsiella pneumoniae, 0.05 µg/mL. The compound also returned an IC50 in the assay with Escherichia coli [2] of 0.33 µg/mL.
As for `CN1CCN(c2c(F)cc3c(=O)c(C(=O)O)c4n5c3c2C(=O)CC5CS4)CC1.Cl` (stereo unspecified), the MIC in the assay with Escherichia coli [1] was found to be 0.39 µg/mL; with Escherichia coli [3] it was 0.78 µg/mL; in the assay on Enterococcus faecalis it was 3.13 µg/mL; with Pseudomonas aeruginosa [4], 3.13 µg/mL; with Pseudomonas aeruginosa [5], 6.25 µg/mL; in assay [6], 3.13 µg/mL. Besides, the MIC in the assay with Staphylococcus aureus [7], in the assay with Staphylococcus aureus [8] and against Klebsiella pneumoniae was 0.78 µg/mL in each case. For the same compound, the IC50 in the assay with Escherichia coli [2] turned out to be 0.67 µg/mL.
`CN1CCN(c2c(F)cc3c(=O)c(C(=O)O)c4n5c3c2SCC5CO4)CC1.Cl` (stereo unspecified): the MIC worked out at 1.56 µg/mL against Escherichia coli [1]; 1.56 µg/mL with Escherichia coli [3]; 6.25 µg/mL in the assay on Enterococcus faecalis; 60 µg/mL in the assay with Pseudomonas aeruginosa [4]; 50 µg/mL against Pseudomonas aeruginosa [5]; 6.25 µg/mL in [6]. The results for the MIC with Staphylococcus aureus [7], in the assay on Staphylococcus aureus [8] and in the assay on Klebsiella pneumoniae were 1.56 µg/mL, 3.13 µg/mL and 1.56 µg/mL, respectively. For the same compound, the midpoint of inhibition in the assay with Escherichia coli [2], the IC50, lay at 2.61 µg/mL.
With `CC1COc2c(N3CCN(C)CC3)c(F)cc3c(=O)c(C(=O)O)cn1c23` (stereo unspecified) [OFLOXACIN], the 50% inhibitory concentration (IC50) in the assay on Escherichia coli [2] is 0.53 µg/mL (≈ 1.47 µM).

The values are drawn from ChEMBL document CHEMBL1126942, “Synthesis and antibacterial activity of a new series of tetracyclic pyridone carboxylic acids” (J Med Chem, 1993).
